Assay [1] concerns E. coli UBMS 88-1 (tetB). Nature of the assay: microbe, parasite or virus in culture. In kind it is cell-based. As to conditions: Escherichia coli, 18 h. The method, then: (§1) Method for In Vitro Antibacterial Evaluation (Table I)
(§2) The minimum inhibitory concentration (MIC), the lowest concentration of the antibiotic which inhibits growth of the test organism, is determined by the agar dilution method using Muller-Hinton II agar (Baltimore Biological Laboratories). An inoculum density of 1-5×10^5 CFU/ml and an antibiotic concentration (32-≤0.015 μg/ml) is used. The plates are incubated for 18 hours at 35° C. in a forced air incubator. The test organisms comprise strains sensitive to tetracycline and genetically defined strains that are resistant to tetracycline, due to inability to bind bacterial ribosomes (tetM).

Assay [2] concerns S. aureus UBMS 88-5 (tetM). Description: microbe, parasite or virus in culture. As to conditions: Staphylococcus aureus, 18 h. In kind it is cell-based. The method, then: as §1, §2
Assay [3] relates to S. aureus UBMS 88-7 (tetK). Description: microbe, parasite or virus in culture. In kind it is cell-based. As to conditions: Staphylococcus aureus, 18 h. The method, then:
as §1, §2

The test system of assay [4] is S. aureus UBMS 90-1 (tetM). Description: microbe, parasite or virus in culture. The format is cell-based. As to conditions: Staphylococcus aureus, 18 h. The method, then:
as §1, §2

For assay [5], the system named is S. aureus UBMS 90-2 (tetM). Description: microbe, parasite or virus in culture. In kind it is cell-based. Conditions: Staphylococcus aureus, 18 h. Here is the method: as §1, §2
In assay [6] the test system is E. coli ATCC 25922. Description: In vitro antibacterial evaluation, MIC by agar dilution. The format is cell-based. Conditions: Escherichia coli. The method, then:
as §1, §2

Assay [7] relates to E. coli UBMS 88-2 (sensitive). The assay is described as above. The format is cell-based. As to conditions: Escherichia coli, 18 h. The method, then: as §1, §2
Assay [8] deals with E. coli UBMS 89-2 (sensitive). The description is as above. The format is cell-based. As to conditions: Escherichia coli, Muller-Hinton II agar, 18 hours at 35° C. The method, then: as §1, §2
In assay [9] the test system is Enteroc. spp. 12201. Described as above. The format is cell-based. Here is the method: as §1, §2
Assay [10] relates to S. aureus ATCC 29213 (sensitive). The assay is described as above. The format is cell-based. As to conditions: Staphylococcus aureus, ATCC29213; agar dilution, Muller-Hinton II agar, 18 hours at 35° C.; S. aureus ATCC 29213 (sensitive); read-out: MIC. The method, then:
as §1, §2
Background: In agar dilution, organisms are placed on agar that contains the substance at set levels.

Assay [11] concerns S. aureus IVES 1983 (MP) (meth. resistant). Described as above. In kind it is cell-based. As to conditions: Staphylococcus aureus. Here is the method: as §1, §2
In assay [12] the test system is S. aureus SMITH (MP) (sensitive). The assay is described as above. As to conditions: Staphylococcus aureus; agar dilution, Muller-Hinton II agar, 18 hours at 35° C.; S. aureus SMITH (MP) (sensitive); read-out: MIC. In kind it is cell-based. The method, then:
as §1, §2

Assay [13] has as its system S. aureus UBMS 88-4 (sensitive). Described as above. As to conditions: Staphylococcus aureus. The format is cell-based. Here is the method:
as §1, §2

Assay [14] deals with S. aureus UBMS 90-3 (sensitive). The description is as above. As to conditions: Staphylococcus aureus; agar dilution, Muller-Hinton II agar, 18 hours at 35° C.; S. aureus UBMS 90-3 (sensitive); read-out: MIC. In kind it is cell-based. Here is the method:
as §1, §2

Assay [15] has as its system S. faecal. ATCC 29212. Described as above. In kind it is cell-based. The method, then:
as §1, §2

The subject of assay [16] is S30 extract from E. coli strain MRE 600 (tetracycline sensitive). Nature of the assay: E. coli in vitro cell free protein translation system, Wild Type S30. As to conditions: for % Inhibition Wild Type S30: 35S-methionine incorporation, 30 minutes at 37° C. The format is biochemical. An excerpt: (§3) E. coli in Vitro protein Translation System (Table II)
(§4) An in vitro, cell free, protein translation system using extracts from E. coli strain MRE 600 (tetracycline sensitive) and a derivative of MRE 600 containing the tetM determinant has been developed based on literature methods J. M. Pratt, Coupled Transcription-translation in Prokaryotic Cell-free Systems, Transcription and Translation, a Practical Approach, (B. D. Hames and S. J. Higgins, eds) p. 179-209, IRL Press, Oxford-Washington, 1984!.
(§5) Using the system described above, the tetracycline compounds of the present invention are tested for their ability to inhibit protein synthesis in vitro. Briefly, each 10 μl reaction contains S30 extract (a whole extract) made from either tetracycline sensitive cells or an isogenic tetracycline resistant (tetM) strain, low molecular weight components necessary for transcription and translation (i.e., ATP and GTP), a mix of 19 amino acids (no methionine), ^35 S labeled methionine, DNA template (either pBR322 or pUC119), and either DMSO (control) or the novel tetracycline compound to be tested ("novel TC") dissolved in DMSO.
(§6) The reactions are incubated for 30 minutes at 37° C. Timing is initiated with the addition of the S30 extract, the last component to be added. After 30 minutes, 2.5 μl of the reaction is removed and mixed with 0.5 ml of 1N NaOH to destroy RNA and tRNA. Two to three ml of 25% trichloroacetic acid is added and the mixture incubated at room temperature for 15 minutes. The trichloroacetic acid precipitated material is collected on Whatman GF/C filters and washed with a solution of 10% trichloroacetic acid. The filters are dried and the retained radioactivity, representing incorporation of ^35 S-methionine into polypeptides, is counted using standard liquid scintillation methods.
(§7) The percent inhibition (P.I.) of protein synthesis is determined to be: [formula]

Assay [17] relates to S30 extract from derivative of E. coli MRE 600 containing the tetM determinant. Nature of the assay: E. coli in vitro cell free protein translation system, TetM S30. The format is biochemical. As to conditions: cell-free extracts from strain MRE600 (tetM).
From the text: as §3, §4, §5, §6, §7

The subject of assay [18] is tetracycline sensitive and resistant Gram-positive and Gram-negative bacteria. Description: In vitro antibacterial activity, summary statements of the testing results. In kind it is cell-based. Here is the method:
as §1, §2

For assay [19], the system named is E. coli UBMS 89-1 (tetM). Description: microbe, parasite or virus in culture. As to conditions: Escherichia coli, 18 h. In kind it is cell-based. The method, then:
as §1, §2

In assay [20] the test system is S. aureus IVES 2943 (meth. resistant). Nature of the assay: In vitro antibacterial evaluation, MIC by agar dilution. In kind it is cell-based. As to conditions: Staphylococcus aureus, 18 h. Here is the method: as §1, §2
The subject of assay [21] is S. haemol. AVAH 88-3. Described as above. The format is cell-based. Here is the method:
as §1, §2

Assay [22] concerns Staphylococcus aureus strain Smith (tetracycline sensitive). Description: In vivo antibacterial evaluation, acute lethal infection in mice. Conditions: 168 h, female mice CD-1, intraperitoneal challenge with S. aureus Smith, dosed subcutaneously or orally 30 minutes after infection, 7 day survival ratios. Here is the method: In Vivo Antibacterial Evaluation (Table III)
The therapeutic effects of tetracyclines are determined against an acute lethal infection with Staphylococcus aureus strain Smith (tetracycline sensitive). Female, mice, strain CD-1 (Charles River Laboratories), 20±2 grams, are challenged by an intraperitoneal injection of sufficient bacteria (suspended in hog mucin) to kill non-treated controls within 24-48 hours. Antibacterial agents, contained in 0.5 ml of 0.2% aqueous agar, are administered subcutaneously or orally 30 minutes after infection. When an oral dosing schedule is used, animals are deprived of food for 5 hours before and 2 hours after infection. Five mice are treated at each dose level. The 7 day survival ratios from 3 separate tests are pooled for calculation of median effective dose (ED50).

Setting [23] is: ATCC25922, agar dilution, Muller-Hinton II agar, 18 hours at 35° C., E. coli ATCC 25922, read-out: MIC.
Where [24] appears, read: agar dilution, Muller-Hinton II agar, 18 hours at 35° C., Enteroc. spp. 12201, read-out: MIC.
The mark [25] stands for this setting: agar dilution, Muller-Hinton II agar, 18 hours at 35° C., S. aureus IVES 1983 (MP) (meth. resistant), read-out: MIC.
Setting [26] is: agar dilution, Muller-Hinton II agar, 18 hours at 35° C., S. faecal. ATCC 29212, read-out: MIC.

Structures can show the parent of a compound that is named as a salt. Where two headings read alike, the source gives them in different places.

`CN(C)[C@@H]1C(O)=C(C(N)=O)C(=O)[C@@]2(O)C(O)=C3C(=O)c4c(cc(Cl)c(NC=O)c4O)CC3CC12` (stereo partly shown) [A, 8-Chloro-4-(dimethylamino)-9-(formylamino)-1,4,4a,5,5a,6,11,12a-octahydro-3,10,12,12a-tetrahydroxy-1,11-dioxo-2-naphthacenecarboxamide hydrochloride or sulfate]: the MIC worked out at 32 mg/L in [1]; 0.12 mg/L in assay [2]; 16 mg/L in [3]; 0.25 mg/L in assay [4]; 0.03 mg/L in assay [5]; 0.12 mg/L in [6] (setting [23]). Besides, the MIC in assay [7] is 0.12 mg/L; in [8] it was 0.25 mg/L; in assay [9] (setting [24]) it was 0.5 mg/L; in [10] it was < 0.015 mg/L; in assay [11] (setting [25]), 32 mg/L; in assay [12], < 0.015 mg/L. Also, the MIC in assay [13] (agar dilution, Muller-Hinton II agar, 18 hours at 35° C., S. aureus UBMS 88-4 (sensitive), read-out: MIC) was < 0.015 mg/L; in assay [14] it was < 0.015 mg/L; in [15] (setting [26]) it was < 0.015 mg/L. For the same molecule, the “% Inhibition Wild Type S30” value is 98% in assay [16] (Conc. 0.3 mg/ml) and 93% in assay [16] (Conc. 1.0). Also, the “inhibition of protein synthesis, in words” value in assay [16] (cell-free extracts from tetracycline susceptible strain MRE600) and in [17] was “effectively inhibited” throughout. Also, the “in vitro activity, in words” value in assay [18] (tetracycline resistant strains containing tetM (S. aureus UBMS 88-5, 90-1 and 90-2)) is “good in vitro activity”. For the same molecule, the “in vitro activity compared with minocycline, in words” value in [18] (tetracycline susceptible strains) is given as “equally as effective as minocycline”.
`CN(C)c1c(Cl)cc(O)c2c1CC1CC3[C@H](N(C)C)C(O)=C(C(N)=O)C(=O)[C@@]3(O)C(O)=C1C2=O` (stereo partly shown) [B, 8-Chloro-4,7-bis(dimethylamino)-1,4,4a,5-5a,6,11,12a-octahydro-3,10,12,12a-tetrahydroxy-1,11-dioxo-2-naphthacenecarboxamide sulfate]: the MIC was > 32 mg/L in assay [1]; > 32 mg/L in [19]; 0.5 mg/L in [2]; 0.5 mg/L in [3]; 0.05 mg/L in assay [4]; 0.5 mg/L in [5]. In addition, the MIC in assay [6] (ATCC25922, 18 h) is 8 mg/L; in [7] it was 8 mg/L; in assay [8] it was 16 mg/L; in assay [9] (18 h), 1 mg/L; in assay [10], ≤ 0.015 mg/L; in [11] (18 h), 1 mg/L. Further, the MIC in assay [20] amounted to 1 mg/L; in assay [12], 0.06 mg/L; in assay [13] (18 h), 0.03 mg/L; in assay [14], 0.06 mg/L; in [15] (18 h), 1 mg/L; in [21] (18 h), 0.25 mg/L. Moreover, the ED50 (commonly the dose at which the effect has come halfway, by size or by number of responders) in [22] is > 16 mg/kg.
Take `CN(C)[C@@H]1C(O)=C(C(N)=O)C(=O)[C@@]2(O)C(O)=C3C(=O)c4c(cc(Cl)c(NN)c4O)CC3CC12` (stereo partly drawn) [J, 4S-(4alpha, 12aalpha)!-8-Chloro-4-(dimethylamino)-9-hydrazino-1,4,4a,5,5a,6-11,12a-octahydro-3,10,12,12a-tetrahydroxy-1,11-dioxo-2-naphthacenecarboxamide monohydrochloride]: the MIC was 32 mg/L in assay [1]; 16 mg/L in assay [19]; 0.5 mg/L in [2]; 1 mg/L in assay [3]; 0.5 mg/L in assay [4]; 0.5 mg/L in assay [5]. Besides, the MIC in assay [6] (setting [23]) was 1 mg/L; in [7], 2 mg/L; in assay [8] it was 4 mg/L; in assay [9] (setting [24]), 0.05 mg/L; in assay [10], ≤ 0.015 mg/L; in assay [11] (setting [25]), 2 mg/L. Moreover, the MIC in [12] worked out at 0.03 mg/L; in assay [13] (18 h), 0.06 mg/L; in assay [14], 0.03 mg/L; in [15] (setting [26]), 0.5 mg/L; in [21] (agar dilution, Muller-Hinton II agar, 18 hours at 35° C., S. haemol. AVAH 88-3, read-out: MIC), 0.25 mg/L. The ED50 in assay [22] was > 16 mg/kg.

The record behind these values is patent US5512553A, “7-(substituted)-8-(substituted)-9-(substituted amino)-6-demethyl-6-deoxytetracyclines” (American Cyanamid Company, priority 1995, dated 1996).
